Measurements taken from publication PMC9834611 (Pharmacology Research & Perspectives, 2023).
Like-named read-outs stand apart in the source and are kept apart here.

Experiments:
[1] = tested on: ABCB1; assay: ABCB1 transport Vmax optimized to in vivo canine PK data; details: dog and human models
Text: The transfer of drugs at the BBB is unique as the mass transfer out of the vascular space surrounding the brain tissue is hindered by a permeability barrier. […] Coupling the ABCB1 transport equations as expressed above with permeability‐limited modeling equations from Choi et al.,[23] the following equations are proposed where Equation ( 4 ) describes the amount of drug within the brain tissue and Equation ( 5 ) describes the amount of drug in the vascular space surrounding the tissue: (4) VCNS*dCCNS,T/dt=PSA×CA−CCNS,V−sfABCB1,CNS×VCNS×VMAXABCB1×CCNS,V/KMABCB1+CCNS,V (5) VBB*dCBB/dt=QCNS*CA−CV−PSA×CA−CV,CNA+sfCNS×VCNS×VMAXABCB1×CCNS,V/KMABCB1+CCNS,V where VCNS is the volume of the brain tissue, VBB is the volume consisting of brain blood, CCNS,T is the concentration of drug in the brain tissue, PSA is the permeability surface area product, sfABCB1,CNS is the relative ABCB1 expression in brain tissue, and CBB is the concentration of drug in the brain blood. VCNA and VBB were set to 97% and 3% of total brain volume, respectively.[37] […] The parameter optimization method was conducted as described previously with nonlinear least squares regression. […] The corresponding Vmax,ABCB1 value was optimized to in vivo canine PK data. […]

[2] = tested on: human ABCB1; design: method as in PMID 17142983; details: dog and human models, cited from earlier work
[3] = tested on: ABCB1; assay: ABCB1‐driven transport kinetics fit to wild‐type mouse brain tissue PK data
Text: The rate of change in the amount of drug in tissues with ABCB1 expression is as follows: (3) dAT/dt=QC×CA−CVT−FABCB1,T×Vmax,ABCB1×Cv/Km+Cv In which ABCB1‐mediated efflux of drug is characterized by Michaelis–Menten saturable kinetics, where FABCB1,T is the scaling factor for the relative expression of ABCB1 transport protein in relevant tissues, Vmax,ABCB1 is the maximum velocity of ABCB1 transport out of the tissue compartment, and Km is the associated Michaelis–Menten constant. Scaling factors, FABCB1,T , were acquired from Systems Pharmacology for ABCB1 relative tissue expression as previously reported.[36]
The transfer of drugs at the BBB is unique as the mass transfer out of the vascular space surrounding the brain tissue is hindered by a permeability barrier. […] Coupling the ABCB1 transport equations as expressed above with permeability‐limited modeling equations from Choi et al.,[23] the following equations are proposed where Equation ( 4 ) describes the amount of drug within the brain tissue and Equation ( 5 ) describes the amount of drug in the vascular space surrounding the tissue: (4) VCNS*dCCNS,T/dt=PSA×CA−CCNS,V−sfABCB1,CNS×VCNS×VMAXABCB1×CCNS,V/KMABCB1+CCNS,V (5) VBB*dCBB/dt=QCNS*CA−CV−PSA×CA−CV,CNA+sfCNS×VCNS×VMAXABCB1×CCNS,V/KMABCB1+CCNS,V where VCNS is the volume of the brain tissue, VBB is the volume consisting of brain blood, CCNS,T is the concentration of drug in the brain tissue, PSA is the permeability surface area product, sfABCB1,CNS is the relative ABCB1 expression in brain tissue, and CBB is the concentration of drug in the brain blood. VCNA and VBB were set to 97% and 3% of total brain volume, respectively.[37] […] The parameter optimization method was conducted as described previously with nonlinear least squares regression. […] The corresponding Vmax,ABCB1 value was optimized to in vivo canine PK data. […] Canine model parameter values were thus fit to the patients without concurrent treatment of omeprazole to minimize the influence of potential drug–drug interactions.

[4] = tested on: dog liver microsomes; details: dog and human models, fit of digitized data, cited from earlier work
[5] = tested on: serum proteins; details: cited from earlier work
[6] = tested on: plasma proteins, primarily alpha‐1 acid glycoprotein; details: cited from earlier work
[7] = Human PBPK model Monte Carlo simulation and model parameters
[8] = in vitro; details: female, CD-1, mouse, liver microsomes
[9] = Mouse PBPK model simulations and model parameters
Text: This model thus aims to elucidate the implications of drug pharmacokinetics and mechanisms of distribution, ultimately providing a modeling base for extrapolation of simulated concentration profiles to clinical settings. The primary drivers of vinca disposition are fraction unbound drug to plasma proteins, intercellular tubulin binding, metabolism, and ABCB1‐mediated transport. With exception to the brain, tissue compartments are defined by a well‐stirred, flow‐limited model in which the concentration of drug leaving the compartment is equal to the unbound drug concentration within the tissue. The blood–brain barrier (BBB) is distinctive as the tight junctions and prolific expression of efflux transporter proteins provide a highly restrictive barrier to many lipophilic molecules. The brain is thus defined by a permeability‐limited model dictated by a modification of Fick's Law of diffusion in which the permeability‐surface area product constitutes the tissue permeation coefficient, the capillary surface area permitting diffusion, and the thickness of the cellular membrane.[32] ABCB1 is highly expressed at the blood–brain barrier as well as in the liver, gut, and kidneys, facilitating drug excretion.[14], [15]
Physiological parameters for tissue‐specific percent body weight and cardiac output for mouse, canine, and human were sourced from Brown et al.[27] and presented in Table 1. All tissue densities were approximated to be 1 kg/L. Cardiac output for respected species was estimated using a previously derived allometric scaling relationship for unanesthetized mice.[33] […] The rate of change in the amount of drug within generic, non‐eliminating compartments is governed by the following mass balance equation: (1) dAC/dt=VC×dCC/dt=QC×CA−CVT where AC is the amount of drug in the tissue, VC is the volume of the tissue (assuming static volume), CC is the concentration within the tissue, QC is the tissue perfusion rate, CA is the arterial blood drug concentration, and CVT is the venous blood drug concentration.
Tissue‐specific‐binding capacities, BC , were obtained from studies where tubulin concentrations were determined from tubulin‐binding capacities for colchicine[12] and are reported in Table 2. […] Relative tissue tubulin‐binding capacities were thus assumed to be equivalent for the mouse, dog, and human PBPK model developed herein. […] Partition coefficients, PC , for respective tissues were determined by performing parameter optimization in MATLAB's tool, SimBiology, using a nonlinear least squares regression estimation method from the optimization toolbox. The statistical modeling method fit pooled Mdr1a/b (−/−) tissue data generating one set of partition parameters for all tissues which are reported in Table 1.
The transfer of drugs at the BBB is unique as the mass transfer out of the vascular space surrounding the brain tissue is hindered by a permeability barrier.

[10] = Canine PBPK model Monte Carlo simulation and model parameters; details: dog model
[11] = bone marrow, optimized to mouse mdr1a/b (−/−) data
[12] = optimized to mouse mdr1a/b (−/−) data
[13] = mouse model, optimized to mouse mdr1a/b (−/−) data

## CC[C@]1(O)C[C@@H]2CN(CCc3c([nH]c4ccccc34)[C@@](C(=O)OC)(c3cc4c(cc3OC)N(C)[C@H]3[C@@](O)(C(=O)OC)[C@H](OC(C)=O)[C@]5(CC)C=CCN6CC[C@]43[C@@H]65)C2)C1 [VBL, Vinblastine]
[1]; optimized to in vivo canine PK data
  VmABCB1: 64.54 nmol/L/h
[1]; set equivalent to ABCB1 value
  Vmbil (biliary transport Vmax): 64.54 nmol/L/h
[2]; based on ATPase activity
  KmABCB1: 5760 nmol/L
[2]; set equivalent to ABCB1 value, read-out: Kmbil (biliary transport Km)
  Km: 5.76 µM
[3]; WT mouse, set equivalent to ABCB1 value
  Vmbil (biliary transport Vmax): 928.8 nmol/L/h
[3]; fit to wild‐type mouse brain tissue PK data
  Vmax, ABCB1‐driven transport: 928.8 nM/h
[3]; mouse, optimized parameter
  KmABCB1: 6.41 nmol/L
  VmABCB1: 928.8 nmol/L/h
[4]; extrapolated using 55 mg protein/g liver
  Vmmet (metabolism Vmax): 189.6 µmol/L/h
[4]; read-out: Kmmet (metabolism Km)
  Km: 9.53 µM
[5]; dog plasma
  bound to serum proteins: ≤ 75%
[5]; value used in dog model
  Protein binding (single value): 75%
[5]; value used in human model
  Protein binding (single value): 75%
[5]; value used in mouse model
  Protein binding (single value): 75%
[6]
  percentage of drug bound to plasma proteins: 48–99%
[6]; value used in dog model
  Protein binding (range): 48–99%
[6]; value used in human model
  Protein binding (range): 48–99%
[6]; value used in mouse model
  Protein binding (range): 48–99%
[7]
  Partition coefficient PCblood: 1.0
[7]; [11]
  Partition coefficient PCBM: 1.0
[7]; [12]
  Partition coefficient PCCNS: 1.21
  Partition coefficient PCGut: 1.08
  Partition coefficient PCKidney: 3.73
  Partition coefficient PCLiver: 2.26
[8]
  Km at 5 min: 11.6 µM
[9]; mdra1a/b (−/−) mouse, optimized to fecal data
  Vmbil (biliary transport Vmax): 23.35 nmol/L/h
[9]; mouse model
  Partition coefficient PCblood: 1.0
[9]; mouse model, bone marrow, optimized to mouse mdr1a/b (−/−) data
  Partition coefficient PCBM: 1.0
[9]; [13]
  Partition coefficient PCCNS: 1.21
  Partition coefficient PCGut: 1.08
  Partition coefficient PCKidney: 3.73
  Partition coefficient PCLiver: 2.26
[10]
  Partition coefficient PCblood: 1.0
[10]; [11]
  Partition coefficient PCBM: 1.0
[10]; [12]
  Partition coefficient PCCNS: 1.21
  Partition coefficient PCGut: 1.08
  Partition coefficient PCKidney: 3.73
  Partition coefficient PCLiver: 2.26
